Assay results from paper PMC11521309, “A novel 4-aminoquinoline chemotype with multistage antimalarial activity and lack of cross-resistance with PfCRT and PfMDR1 mutants” (PLOS Pathogens, 2024).

How the values were obtained:
[1] = test system: P. falciparum 3D7 ABS parasites; experiment: ABS parasite survival assay, 72 h, flow cytometry; format: cell-based; details: Plasmodium falciparum, 3D7, ABS parasites, N = 3; read-out: IC50 3D7
Experimental: (§1) P. falciparum ABS parasites were cultured at 3% hematocrit in human O^+ RBCs in RPMI-1640 media supplemented with 25 mM HEPES, 50 mg/L hypoxanthine, 2 mM L-glutamine, 0.21% sodium bicarbonate, 0.5% (w/v) AlbuMAXII (Invitrogen) and 10 μg/mL gentamycin. Culture flasks were kept in modular incubator chambers (Billups-Rothenberg) in a 5% O2, 5% CO2, and 90% N2 atmosphere at 37°C. Synchronized ring-stage parasites were obtained by two consecutive rounds of treatment with 5% D-sorbitol in 48-hour intervals. […] This was done by exposing cultures at 1% hematocrit and 0.3% parasitemia in 96-well plates in the presence of drugs in a two-fold 10 or 12-point serial dilution in duplicate along with drug-free controls. After a 72-hour incubation, parasite survival was assessed by flow cytometry on an iQue flow cytometer (Sartorius) using SYBR Green and MitoTracker Deep Red FM (Life Technologies) as nuclear stain and vital dye, respectively. Parasite survival was determined as a percentage relative to drug-free control. IC50 values were interpolated from log concentration versus response curves in Prism 9 (GraphPad Prism Software Inc.).

[2] = test system: P. falciparum Dd2 ABS parasites; experiment: ABS parasite survival assay, 72 h, flow cytometry; format: cell-based; details: Plasmodium falciparum, DD2, ABS parasites, N = 3; read-out: IC50 Dd2
Experimental: as §1

[3] = MTT cytotoxicity assay, 72 h; format: cell-based, monkey; details: monkey, COS-7 cells; MTT, 72 h, N = 3
Experimental: (§2) Human hepatoma (HepG2) and fibroblast-like monkey kidney cells (COS-7) were cultured in Dulbecco’s Modified Eagle Medium supplemented with 10% heat-inactivated fetal bovine serum and gentamycin (40 mg/L) at 37°C in a 5% CO2 atmosphere. Cytotoxicity of test compounds was measured by metabolic reduction of mitochondrial enzymes using the MTT assay (3-[4,5-dimethyl-thiazol-2-yl]-2,5-diphenyltetrazolium chloride). Cells were seeded at 10^5 cells/well in 96-well plates and incubated for 72 hours in the presence of a 2-fold 12-point serial dilution of drugs along with drug-free controls. After adding 15 μL of MTT (5 mg/mL) to the wells, plates were centrifuged at 317g for 5 minutes and the pellet was resuspended in isopropanol. Absorbance was measured at 570 nm (CLARIOStar, Labtech BMG). Cell viability was determined by formazan production, and was expressed as a percentage of untreated control wells.

COS-7 cells = experiment: MTT cytotoxicity assay, 72 h; format: cell-based, monkey
Experimental: as §2

[4] = MTT cytotoxicity assay, 72 h; format: cell-based, Human; details: human, HepG2 cells; MTT, 72 h, N = 3
Experimental: as §2

HepG2 cells = experiment: MTT cytotoxicity assay, 72 h; format: cell-based, Human
Experimental: as §2

[5] = test system: P. berghei PbGFP-Luccon liver stage; experiment: In vitro inhibition of liver stage infection of Huh-7 cells, bioluminescence; format: cell-based, Plasmodium berghei; details: DMSO = 100
Experimental: (§3) In vitro inhibition of Plasmodium liver stage infection was assessed using bioluminescence data from Huh-7 cells infected with a firefly-luciferase-expressing P. berghei line, PbGFP-Luccon, in the presence of various compound concentrations. […] One day before drug treatment and infection, 10^4 Huh-7 cells/well were seeded in 96-well plates. The medium was then replaced by an infection medium (culture medium supplemented with 50 μg/mL gentamycin and 0.8 μg/mL amphotericin B) containing desired concentrations of test compounds. Fresh sporozoites recovered from salivary glands of infected female Anopheles stephensi mosquitoes were added to seeded Huh-7 cells at a 1:1 proportion, followed by centrifugation at 1700g for 5 minutes and incubation for 46 hours at 37°C under 5% CO2. Compound toxicity against Huh-7 cells was assessed by measuring […] using the Alamar Blue assay (Invitrogen). IC50 values were calculated using nonlinear regression analysis (GraphPad Prism version 9).

Huh-7 cells = experiment: Host cell confluency, Alamar Blue; format: cell-based, human; details: DMSO = 100
Experimental: as §3

[6] = test system: P. falciparum NF54-Pfs16-GFP-Luc stage IV-V gametocytes; experiment: Mature gametocyte (stages IV-V) viability, luciferase, 48 h; format: cell-based, Plasmodium falciparum; details: 5 μM
Experimental: P. falciparum NF54-Pfs16-GFP-Luc (MRA-1217), a highly gametocyte-producing strain, was cultured following standard procedures. NF54-Luc ABS parasites were sorbitol-synchronized as previously described and cultured to reach 8–10% parasitemia as mature trophozoites prior to starting gametogenesis induction via nutrient deficit stress. Briefly, stress was induced by replacing only 40% of the culture medium and returning cultures to a 37°C incubation. Cultures were treated with 50 mM N-acetylglucosamine for 10 days to remove ABS parasites. Mature gametocytes (stages IV-V) were isolated using magnetic columns and incubated at 2% gametocytemia and 1.5% hematocrit in 96-well plates containing the test compounds for 48 hours at 37°C, following standard P. falciparum culturing conditions. Methylene blue was used as a gametocytocidal control alongside drug-free wells. Luciferase activity was assessed by adding 40 μL of luciferin substrate (Promega) to 40 μL of parasite lysates and detecting bioluminescence at an integration constant of 10s with the BioTek Cytation 5 Cell Imaging Multimode Reader.

COc1ccc2c(Nc3ccccc3)ccnc2c1 [LDT-622]
IC50 [1]: 200 ± 20 nM
IC50 [2]: 400 ± 60 nM
CC50 at 72 h [3]: 3.8 ± 0.7 µM
SI (CC50 COS-7 / IC50 3D7) (COS-7 cells): 17.5
CC50 at 72 h [4]: 3 ± 0.9 µM
SI (CC50 HepG2 / IC50 3D7) (HepG2 cells): 13.7

COc1cc(Nc2ccnc3cc(Br)ccc23)cc(OC)c1OC [LDT-624]
IC50 [1]: 1600 ± 700 nM
IC50 [2]: 1000 ± 200 nM
CC50 at 72 h [3]: 41.3 ± 17.2 µM
SI (CC50 COS-7 / IC50 3D7) (COS-7 cells): 26.1
CC50 at 72 h [4]: 32.5 ± 7.5 µM
SI (CC50 HepG2 / IC50 3D7) (HepG2 cells): 20.6

COc1ccc(Nc2ccnc3ccc(F)cc23)cc1OC [LDT-625]
IC50 [1]: 3200 ± 800 nM
IC50 [2]: 2900 ± 500 nM
CC50 at 72 h [3]: 20.4 ± 1.3 µM
SI (CC50 COS-7 / IC50 3D7) (COS-7 cells): 6.2
CC50 at 72 h [4]: 33.3 ± 3.8 µM
SI (CC50 HepG2 / IC50 3D7) (HepG2 cells): 10.3

COc1ccc(Nc2ccnc3c(F)cc(F)cc23)cc1OC [LDT-626]
IC50 [1]: 5500 ± 500 nM
IC50 [2]: 3200 ± 400 nM
CC50 at 72 h [3]: 50.9 ± 22.2 µM
SI (CC50 COS-7 / IC50 3D7) (COS-7 cells): 9.3
CC50 at 72 h [4]: 53.8 ± 10.8 µM
SI (CC50 HepG2 / IC50 3D7) (HepG2 cells): 9.8

COc1ccc(Nc2ccnc3ccccc23)cc1 [LDT-627]
IC50 [1]: 2500 ± 800 nM
IC50 [2]: 2000 ± 200 nM
CC50 at 72 h [3]: 54.5 ± 16.7 µM
SI (CC50 COS-7 / IC50 3D7) (COS-7 cells): 22.1
CC50 at 72 h [4]: 12.7 ± 6.4 µM
SI (CC50 HepG2 / IC50 3D7) (HepG2 cells): 5.2

COc1cc(NC(C)CCCN)c2ncccc2c1 (stereo not shown) [Primaquine]
Infection, Mean ([5]; 1 uM): 136.53
Infection, Mean ([5]; 10 uM): 51.51
Confluency, Mean (Huh-7 cells; 1 uM): 110.92
Confluency, Mean (Huh-7 cells; 10 uM): 113.36

CN(C)c1ccc2nc3ccc(=[N+](C)C)cc-3sc2c1 [methylene blue]
% Inhibition of viability, mature gametocytes ([6]; mean, N = 3): 100%
% Inhibition of viability, mature gametocytes ([6]; mean, N = 3, listed as MB): 100.00%
% Inhibition of viability, mature gametocytes ([6]; single replicates): 100.00%
